Data taken from patent US11584744B2 (UNIVERSITY OF WASHINGTON, priority 2017, dated 2023).
In brackets after ≈: the same amount, converted by molar mass. Where two headings read alike, the source gives them in different places.

Columns and labels:
[1] = test system: S. aureus MRSA (ATCC 33591); assay: MIC susceptibility testing; assay type: cell-based, Staphylococcus aureus; details: Staphylococcus aureus, read-out: (G) MRSA (ATCC33591) MIC
Outline: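 CLSI broth microdilution with two-fold compound dilutions, in triplicate; cells added in medium at 1×10^6 CFUs/mL, DMSO ≤0.5%. Media: MHB for S. aureus, CA-MHB for E. coli and E. faecium, CA-MHB plus 3% laked horse blood for S. pyogenes (5% CO2).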

[2] = test system: S. aureus MSSA (ATCC 29213); assay: MIC susceptibility testing; assay type: cell-based, Staphylococcus aureus; details: for MIC: Staphylococcus aureus, read-out: (F) S. aureus (ATCC 29213) MIC
[3] = test system: E. faecium VRE (ATCC 51559); assay: MIC susceptibility testing; assay type: cell-based, Enterococcus faecium; details: Enterococcus faecium, read-out: (I) E. faecium (ATCC 51559) MIC
From the text: Media and culture conditions. Mueller Hinton broth (MHB), cation adjusted Mueller Hinton broth (CA-MHB), and Brain Heart Infusion broth (BHI) were purchased from Becton Dickinson (Franklin Lakes, N.J.). Tryptic soy agar (TSA) plates, TSA with 5% sheep blood plates, and CA-MHB with 3% laked horse blood were purchased from Remel (San Diego, Calif.). MHB was used to assay all Staphylococcus aureus strains. CA-MHB was used for Staphylococcus epidermidis, Enterococcus faecalis, Enterococcus faecium, Escherichia coli, and Pseudomonas aeruginosa. CA-MHB supplemented with 3% laked horse blood was used for Streptococcus pneumoniae and Streptococcus pyogenes. Staphylococcus, Enterococcus, Escherichia, and Pseudomonas strains were cultured at 37° C. with ambient air. Streptococcus strains were cultured in 37° C. with 5% CO2. Separate conditions for radiolabeled precursor uptake assays are described below.
Susceptibility testing: Minimum inhibitory concentration (MIC) determinations were performed in triplicate in 96-well round bottom microtiter plates (Corning, Corning N.Y.) as described by the Clinical and Laboratory Standards Institute (CLSI). Serial two-fold dilutions of compounds were added to plates in 50 μL volumes. An additional 50 μL of media containing bacterial cells (1×10^6 CFUs/mL) was then added to each well. Maximum DMSO concentrations were 0.5%. Plates were incubated at 37° C. for at least 18 h before reading the susceptibility result by optical absorbance (OD600) using a BioTek ELx800. The lowest concentration causing ≥90% growth inhibition compared to the untreated control was recorded as the MIC (and also corresponded to the visual MIC). MICs were measured at least twice and the higher value (if different) was recorded herein.

MetRS (T. brucei) = molecular target: T1, MetRS (T. brucei) (Trypanosoma brucei brucei, UniProt Q38C91); assay: MetRS (T. brucei) enzyme inhibition; assay type: biochemical
T1 sequence (Q38C91 1-773): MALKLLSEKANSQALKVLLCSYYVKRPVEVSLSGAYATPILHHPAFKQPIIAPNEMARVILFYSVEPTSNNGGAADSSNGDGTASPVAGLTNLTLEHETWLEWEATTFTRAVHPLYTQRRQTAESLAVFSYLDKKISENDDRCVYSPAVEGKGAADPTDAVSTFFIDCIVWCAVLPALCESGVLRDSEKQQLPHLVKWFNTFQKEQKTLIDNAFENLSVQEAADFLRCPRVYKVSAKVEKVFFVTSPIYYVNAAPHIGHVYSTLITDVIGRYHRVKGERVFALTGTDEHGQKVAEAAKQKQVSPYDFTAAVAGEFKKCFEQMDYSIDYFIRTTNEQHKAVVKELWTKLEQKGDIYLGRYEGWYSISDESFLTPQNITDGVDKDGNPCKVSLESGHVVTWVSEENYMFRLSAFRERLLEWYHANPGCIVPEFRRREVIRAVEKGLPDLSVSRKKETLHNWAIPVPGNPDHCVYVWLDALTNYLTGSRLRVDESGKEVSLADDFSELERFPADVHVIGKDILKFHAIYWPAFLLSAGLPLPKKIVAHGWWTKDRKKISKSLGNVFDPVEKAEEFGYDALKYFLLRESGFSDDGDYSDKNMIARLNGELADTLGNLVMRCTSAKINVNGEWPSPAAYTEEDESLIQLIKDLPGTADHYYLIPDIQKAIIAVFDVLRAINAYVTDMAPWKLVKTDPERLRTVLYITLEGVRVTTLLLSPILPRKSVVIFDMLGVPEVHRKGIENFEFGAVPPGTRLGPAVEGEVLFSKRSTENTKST

MetRS (C. parvum) = MetRS (C. parvum) (Cryptosporidium parvum, UniProt Q5CVN0); assay: MetRS (C. parvum) enzyme inhibition; assay type: biochemical
MetRS (C. parvum), sequence (Q5CVN0 entry or part of it): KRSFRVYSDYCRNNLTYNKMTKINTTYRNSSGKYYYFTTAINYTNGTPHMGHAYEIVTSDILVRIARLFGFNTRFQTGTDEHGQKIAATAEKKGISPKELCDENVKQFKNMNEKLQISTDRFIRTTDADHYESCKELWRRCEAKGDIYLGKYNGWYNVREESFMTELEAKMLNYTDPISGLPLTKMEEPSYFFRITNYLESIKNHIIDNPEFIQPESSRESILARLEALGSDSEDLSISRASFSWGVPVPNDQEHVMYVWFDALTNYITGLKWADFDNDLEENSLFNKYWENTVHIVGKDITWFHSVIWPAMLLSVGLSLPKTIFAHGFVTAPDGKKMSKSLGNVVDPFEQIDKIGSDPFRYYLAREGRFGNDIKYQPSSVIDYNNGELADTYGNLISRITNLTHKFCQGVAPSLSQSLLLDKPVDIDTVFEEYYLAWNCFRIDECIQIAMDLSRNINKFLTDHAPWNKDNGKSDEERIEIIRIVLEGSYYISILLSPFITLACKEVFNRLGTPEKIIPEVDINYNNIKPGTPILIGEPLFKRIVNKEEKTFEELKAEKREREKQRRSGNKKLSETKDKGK

T. brucei = T. brucei growth inhibition; assay type: cell-based, Trypanosoma brucei; details: read-out: (D) T. brucei EC50
T. cruzi = T. cruzi growth inhibition; assay type: cell-based, Trypanosoma cruzi; details: read-out: (E) T. cruzi EC50
C. parvum = C. parvum growth inhibition; assay type: cell-based, Cryptosporidium parvum; details: read-out: (J) C. parvum EC50
[4] = read-out: (C) MetRS (C. parvum) IC50

Row | MIC ([1]; MRSA ATCC33591) [µg/mL] | (F) S. aureus (ATCC 29213) MIC ([2]; S. aureus ATCC 29213) [µg/mL] | MIC ([2]; S. aureus ATCC 29213) [µg/mL] | MIC ([3]; E. faecium ATCC 51559) [µg/mL] | IC50 (MetRS (T. brucei)) [nM] | IC50 (MetRS (C. parvum); [4]) [nM] | EC50 (T. brucei; Trypanosoma brucei) [nM] | EC50 (T. cruzi; Trypanosoma cruzi) [nM] | EC50 (C. parvum; Cryptosporidium parvum) [nM] | EC50 (C. parvum) [nM] | EC50 (T. brucei) [nM] | EC50 (T. cruzi) [nM] | SMILES | MIC [1] [µg/mL] | MIC [2] [µg/mL] | MIC [3] [µg/mL] | IC50 (MetRS (C. parvum)) [nM]
1 | 0.293 (≈ 0.647 µM) | 0.927 | 1.11 (≈ 2.45 µM) | 0.167 (≈ 0.369 µM) | 53 | 82.5 | 6.38 | 366 | 1920 |  |  |  | CCn1c(C(O)c2ccc(Cl)cc2Cl)cn(Cc2nc3nc(Cl)ccc3[nH]2)c1=O (centres unmarked) [Compound 2204, 1-({5-chloro-1H-imidazo[4,5-b]pyridin-2-yl}methyl)-4-[(2,4-dichlorophenyl)(hydroxy)methyl]-3-ethyl-2,3-dihydro-1H-imidazol-2-one] |  |  |  | 
2 | 0.515 (≈ 1.07 µM) |  | 0.362 (≈ 0.754 µM) | 0.357 (≈ 0.743 µM) | < 40 | < 40 | 18.5 | 179 | 656 | 640 |  |  | COc1ccc(-c2ccc(NC(C)=O)c3nc(Cc4nc5cc(Cl)ccc5[nH]4)cn23)c(Cl)c1 [Compound 2180, N-{2-[(6-chloro-1H-1,3-benzodiazol-2-yl)methyl]-5-(2-chloro-4-methoxyphenyl)imidazo[1,2-a]pyridin-8-yl}acetamide] |  |  |  | 
3 | 1.17 (≈ 2.75 µM) | 1.37 | 1.07 (≈ 2.52 µM) | 0.995 (≈ 2.34 µM) | 52 | < 40 | 23.7 | 174 | > 2000 |  |  |  | COc1ccc(-c2cccc3c2CN(Cc2nc4nc(Cl)ccc4[nH]2)C3)c(Cl)c1 [Compound 2224, 5-chlor0-2-((4-(2-chloro-4-methoxyphenyl)isoindolin-2-yl)methyl)-1H-imidazo[4,5-b]pyridine] |  |  |  | 
4 | 0.26 (≈ 0.511 µM) |  | 0.298 (≈ 0.586 µM) | 0.272 (≈ 0.535 µM) | < 40 | < 40 | < 0.91 | 14.8 | > 2000 |  | 0.46 | 25.4 | CCOC(=O)Cn1c(C(=O)c2ccc(Cl)cc2Cl)cn(Cc2nc3ccc(Cl)nc3[nH]2)c1=O [Compound 2215, ethyl 2-[3-({5-chloro-1H-imidazo[4,5-b]pyridin-2-yl}methyl)-5-(2,4-dichlorobenzoyl)-2-oxo-2,3-dihydro-1H-imidazol-1-yl]acetate] |  |  |  | 
5 | 0.285 (≈ 0.67 µM) | 0.946 | 1.1 (≈ 2.59 µM) | 1.49 (≈ 3.5 µM) | < 40 | < 40 | 32 | 319 | 1290 |  |  |  | COc1ccc(-c2cncc3nc(Cc4nc5nc(Cl)ccc5[nH]4)cn23)c(Cl)c1 [Compound 2156, 2-({5-chloro-1H-imidazo[4,5-b]pyridin-2-yl}methyl)-5-(2-chloro-4-methoxyphenyl)imidazo[1,2-a]pyrazine] |  |  |  | 
6 | 0.359 (≈ 0.797 µM) |  | 0.34 (≈ 0.754 µM) | 0.172 (≈ 0.382 µM) | < 40 | 99.4 | 1.73 | 34.7 | > 2000 |  |  | 45.2 | CCn1c(C(=O)c2ccc(Cl)cc2Cl)cn(Cc2nc3ccc(Cl)nc3[nH]2)c1=O [Compound 2203, 1-((5-chloro-3H-imidazo[4,5-b]pyridin-2-yl)methyl)-4-(2,4-dichlorobenzoyl)-3-ethyl-1,3-dihydro-2H-imidazol-2-one] |  |  |  | 
7 | 0.298 (≈ 0.647 µM) |  | 0.285 (≈ 0.619 µM) | 0.166 (≈ 0.36 µM) | < 40 | < 40 | 6.72 | 108 | > 2000 |  |  |  | CCn1c(Cc2ccc(Cl)cc2Cl)cn(Cc2nc3ccc(Cl)c(C#N)c3[nH]2)c1=O [Compound 2210, 6-chlor0-2-({4-[(2,4-dichlorophenyl)methyl]-3-ethyl-2-oxo-2,3-dihydro-1H-imidazol-1-yl}methyl)-1H-1,3-benzodiazole-7-carbonitrile] |  |  |  | 

Row | SMILES | MIC ([1]; MRSA ATCC33591) [µg/mL] | (F) S. aureus (ATCC 29213) MIC ([2]; S. aureus ATCC 29213) [µg/mL] | MIC ([2]; S. aureus ATCC 29213) [µg/mL] | MIC ([3]; E. faecium ATCC 51559) [µg/mL] | IC50 (MetRS (T. brucei)) [nM] | IC50 (MetRS (C. parvum); [4]) [nM] | EC50 (T. brucei; Trypanosoma brucei) [nM] | EC50 (T. cruzi; Trypanosoma cruzi) [nM] | EC50 (C. parvum; Cryptosporidium parvum) [nM] | EC50 (C. parvum) [nM] | EC50 (T. brucei) [nM] | EC50 (T. cruzi) [nM] | MIC [1] [µg/mL] | MIC [2] [µg/mL] | MIC [3] [µg/mL] | IC50 (MetRS (C. parvum)) [nM]
8 | Clc1ccc(Cc2cn(Cc3nc4nc(Cl)ccc4[nH]3)cn2)c(Cl)c1 [Compound 2189, 1-({5-chloro-1H-imidazo[4,5-b]pyridin-2-yl}methyl)-4-[(2,4-dichlorophenyl)methyl]-1H-imidazole] |  |  |  |  | < 40 |  | 7.9 | 156 | 2000 |  |  |  | 0.596 (≈ 1.52 µM) | 0.676 (≈ 1.72 µM) | 0.704 (≈ 1.79 µM) | < 40
